Assay results: paper PMC11673335, “Mannich Base Derived from Lawsone Inhibits PKM2 and Induces Neoplastic Cell Death” (Biomedicines, 2024)

Target: T1, PKM2 (pyruvate kinase M2) (Homo sapiens, UniProt P14618)
T1 construct: gene PKM; recombinant human PKM2 (Sigma-Aldrich #SAE0021)
Experiment: LDH-coupled PKM2 activity assay; confirmed by ATP production (CellTiter-Glo)
Assay type: biochemical

T1 sequence (P14618 2-531): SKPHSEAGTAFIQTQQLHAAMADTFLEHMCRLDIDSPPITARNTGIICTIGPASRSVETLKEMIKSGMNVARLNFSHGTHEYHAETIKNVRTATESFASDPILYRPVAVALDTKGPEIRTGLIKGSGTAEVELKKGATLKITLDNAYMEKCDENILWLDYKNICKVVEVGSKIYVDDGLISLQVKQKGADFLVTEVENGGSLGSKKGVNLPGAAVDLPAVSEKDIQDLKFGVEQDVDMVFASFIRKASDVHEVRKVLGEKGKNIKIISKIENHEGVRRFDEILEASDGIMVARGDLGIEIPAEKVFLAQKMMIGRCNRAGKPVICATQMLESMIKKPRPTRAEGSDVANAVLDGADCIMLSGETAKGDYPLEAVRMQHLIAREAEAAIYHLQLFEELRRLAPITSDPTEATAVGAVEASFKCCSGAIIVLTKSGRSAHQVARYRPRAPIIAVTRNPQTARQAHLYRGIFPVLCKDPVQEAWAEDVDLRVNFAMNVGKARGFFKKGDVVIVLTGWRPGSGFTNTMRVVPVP

Work on “methyl benzyl((4-chlorophenyl)(3-((methoxycarbonyl)oxy)-1,4-dioxo-1,4-dihydronaphthalen-2-yl)methyl)carbamate [MB-6a]” yielded an IC50 of 1040 nM.
